The text below walks through data of patent publication US4748175A, “Pyrimido[5,4-B][1,4]oxazine derivatives and pharmaceutical compositions containing them” (priority 1985, dated 1988).

Counter-ions that a name gives are not always drawn. Like-named read-outs stand apart in the source and are kept apart here.

Data set [1] relates to ^45 Ca^2+ uptake into the sarcoplasma reticulum. The data set is described as follows: 45Ca2+ uptake into the sarcoplasma reticulum in the presence of ATP. It counts as biochemical. Conditions: 10^-2 M. The source says:
EFFECT OF COMPOUND 22 ON THE ^45 Ca^2+ UPTAKE INTO THE SARCOPLASMA RETICULUM IN THE PRESENCE OF ATP
The method of S. Harigaya [Circ. Res. 25, 761 (1969)] was used.

The subject of another data set is patients. Conditions: cited from earlier work.
Data set [2] relates to open-chest, anaesthetized cats. The data set is described as follows: MCF-increasing effect in open-chest, anaesthetized cats (strain gauge arch on left ventricle). It counts as in vivo, cat. Conditions: for change in vivo at 5 mg/kg: Felis catus, iv, 5 mg/kg i.v., open-chest anaesthetized cats, read-out: Increase in MCF as % of the initial value. The procedure: (A) Investigation on anaesthetized cats
The animals were intravenously (i.v.) anaesthetized by 30 mg/kg of pentobarbital-sodium. After arranging the artificial respiration, the chest and pericardium were opened. A strain gauge arch was sutured onto the epicardial surface of the left ventricle [J. Pharm. Exp. Ther. 90, 26 (1947)]. The blood pressure was measured by a catheter inserted to the femoral artery and joined to a P 23 Db pressure transducer and electromanometer. The test compounds were administered either i.v. through a femoral vein cannule, or intraduodenally (i.d.) through the duodenum cannule. At the beginning of the experiment, 0.2 μg/kg of isoproterenol (IS) was i.v. given as an internal standard for checking the myocardial reactivity. Namely, the value of the peak MCF response can also be altered according to the individual animals in the case of each positive inotropic agent. Thus, IS was not used as a real reference drug.
The MCF responses were expressed in the percentage changes of the initial value: the effect on MCF of 5 mg/kg i.v. of the test compound was compared to that of 0.2 μg/kg i.v. of IS.

In a further data set the target is T1, Na-K-ATP-ase (Homo sapiens, UniProt P05023).
T1 construct: Sarcolemma preparations were made according to D. M. Bers; from tissue; host or cells: sarcolemma preparation (heart, from the cited Bers 1979 method and the context)
The data set is described as follows: Na-K-ATP-ase activity in sarcolemma preparations. It counts as biochemical. The following applies: 10^-7 M, 50 mM Tris-HCl pH 7.5. On the procedure: (§1) Sarcolemma preparations were made according to D. M. Bers [Biochem. Biophys. Acta 555, 131 (1979)]. NADH-dichlorophenol-reductase was determined by using a Centrifi-CHEM® enzyme-analyzer. The activity of Na-K-ATP-ase was measured in 50 mM Tris-HCl (at pH 7.5). […] The activity of these enzymes was not altered by even a 10^-4 M concentration of compound 22.

In data set [3] the test system is NADH-dichlorophenol-reductase. The data set is described as follows: NADH-dichlorophenol-reductase (NADH oxydase) activity in sarcolemma preparations. It counts as biochemical. The following applies: 10^-7 M. On the procedure:
as §1

Data set [4] relates to anaesthetized open-chest dogs. The data set is described as follows: Investigation on anaesthetized open-chest dogs (MCF, coronary flow, blood pressure, heart rate). Format: in vivo, dog. The procedure:
(B) Investigation on anaesthetized dogs
The animals were i.v. anaesthetized by 35 mg/kg of pentobarbital-sodium. After opening the chest and pericardium, the lower ascending part of the left circumflex coronary artery was prepared and fitted with an electromagnetic flow probe for measuring the blood flow in the coronary artery. A strain gauge arch was placed onto the area supplied by this coronary artery for measuring the MCF. For determining the systemic blood pressure a femoral arterial cannule, for i.v. drug administration a femoral venous cannule was used. The dp/dt value was calculated from the pressure measured by a Millar type pressure transducer introduced to the left ventricle. All parameters were registered on a Beckman R 12 8-channel dynograph.

Where [5] appears, read: patients suffering from chronic heart failure.

On to `Cn1c(=O)c2c(ncn2C)n(C)c1=O` [caffeine], for which the “inhibition of Ca-uptake” value in data set [1] is around 25%.

As for `COc1cc([S+](C)[O-])ccc1-c1nc2ncccc2[nH]1` (stereo not shown) [Sulmazole, 2-(2-methoxy-4-methylsulfinylphenyl)-1H-imidazo[4,5-b]pyridine], the side-effects entry in the data set on patients (clinical tests) is “relatively frequent side-effects”.

Turning to `CCCCOC(=O)CN1C(=O)COc2c(NCCO)nc(C)nc21` [Example 67, 8-(n-Butoxycarbonyl)methyl-4-(2-hydrocyethyl)amino-2-methyl-6,7-dihydro-8H-pyrimido[5,4-b][1,4]oxazin-7-one hydrochloride], the change in vivo at 5 mg/kg in data set [2] was 37%.

Regarding `C[C@@H]1O[C@@H](O[C@H]2C[C@@H](O)[C@]3(CO)[C@H]4[C@H](O)C[C@]5(C)[C@@H](C6=CC(=O)OC6)CC[C@]5(O)[C@@H]4CC[C@]3(O)C2)[C@H](O)[C@H](O)[C@H]1O` [Ouabain], the Na-K-ATP-ase activity entry on Na-K-ATP-ase is reported as “strongly inhibited”. Also, in data set [3], the indophenol-reductase inhibition result was “slightly”.

Take `CCOC(=O)CN1C(=O)COc2c(NCCO)nc(C)nc21` [Example 37]: in data set [4] (0.5 mg/kg i.v., dogs), the MCF increase is 56%, the coronary flow increase was found to be 34%, the “decrease in the systemic arterial blood pressure” value is 10 to 15% and the tachycardia lay within 6 to 7%. In data set [4] (1 mg/kg i.v., dogs), the MCF increase is 46%, the coronary flow increase stood at 20%, the “duration of the coronary response” value was determined as 10 min and the “heart rate increase (tachycardia)” value is 13%. For the same compound, in data set [4] (1.0 mg/kg i.v., dogs), the “decrease in the systemic arterial blood pressure” value stood at 20%, the “duration of the MCF increase” value came out at 10 min and the “duration of the heart rate increase” value stood at 5 min. In addition, in data set [4] (5 mg/kg i.d., dogs), the MCF increase entry is given as “about 30%” and the “duration of the MCF increase” value was 60 min. In addition, the change in vivo at 5 mg/kg in data set [2] came out at 55.5%. Further, the “positive inotropic action after i.d. administration” value in data set [2] (i.d., dose of both 20 mg/kg and 5 mg/kg) is on record as “strong positive inotropic action”.

On to `Cc1nc2c(c(N(CCO)Cc3ccccc3)n1)OCC(=O)N2` [Example 11], for which the change in vivo at 5 mg/kg in data set [2] was determined as 83%.

As to `Cc1nc(NCCO)c2c(n1)N(CC(=O)N1CCOCC1)C(=O)CO2` [Example 66, 4-(2-Hydroxyethyl)-amino-2-methyl-8-(4-morpholinylcarbonyl)-methyl-6,7-dihydro-8H-pyrimido[5,4-b][1,4]oxazin-7-one], the change in vivo at 5 mg/kg in data set [2] amounted to 58.3%.

For `Cc1nc(NCCO)c2c(n1)N(Cc1ccccc1)C(=O)CO2` [Example 69, 8-Benzyl-2-methyl-4-(2-hydroxyethyl)-amino-2-methyl-6,7-dihydro-8H-pyrimidino[5,4-b][1,4]oxazin-7-one], the change in vivo at 5 mg/kg in data set [2] stood at 66%.

`Cc1nc(NCC2CN(Cc3ccccc3)CCO2)c2c(n1)NC(=O)CO2` (stereo not shown) [Example 27, 4-[(4-Benzyl-2-morpholinyl)-methyl]-amino-2-methyl-6,7-dihydro-8H-pyrimido[5,4-b][1,4]oxazin-7-one dihydrochloride dihydrate]: in data set [4] (1 mg/kg i.v., dogs), the MCF increase stood at 40%, the coronary flow increase is on record as 20%, the “decrease in diastolic pressure” value is 20% and the “decrease in the systemic systolic arterial blood pressure” value came out at 10%. In addition, in data set [4] (1 mg/kg i.v., dogs), the “duration of the coronary response” value came to 20 min, the “half-life of the MCF effect” value came out at 10 min and the “heart rate increase (tachycardia)” value was 10%. In addition, in data set [4] (5 mg/kg i.d., dogs), the MCF increase was 30% and the “duration of the MCF increase” value was found to be 30 min. The change in vivo at 5 mg/kg in data set [2] is 130%.

Consider `Cc1nc(Cl)c2c(n1)N(CC(O)CO)C(=O)CO2` (stereo not shown) [Example 56], for which, in data set [2], the change in vivo at 5 mg/kg came out at 100%.

Take `CCOC(=O)CN1C(=O)COc2c(N)nc(C)nc21` [Example 73]: the change in vivo at 5 mg/kg in data set [2] was 50%.

With `Cc1nc(N2CCOCC2)c2c(n1)N(CC(O)CO)C(=O)CO2` (stereo not shown) [Example 57, 8-(2,3-Dihydroxypropyl)-2-methyl-4-(4-morpholinyl)-6,7-dihydro-8H-pyrimido[5,4-b][1,4]oxazin-7-one], the change in vivo at 5 mg/kg in data set [2] came to 45%.

Regarding `CC(=O)CN1C(=O)COc2c(NCCO)nc(C)nc21` [Example 29, 4-(2-Hydroxyethyl)-amino-2-methyl-8-(2-oxopropyl)-6,7-dihydro-8H-pyrimido[5,4-b][1,4]oxazine-7-one], the change in vivo at 5 mg/kg in data set [2] was determined as 40%.

In the case of `Nc1cc(-c2ccncc2)c[nH]c1=O` [amrinone, 5-amino-(3,4'-bipyridin)-6(1H)-one], in the data set with patients (setting [5]), the cardiac output result was “significantly increased” and the “resistance of the peripheral vessels” value is given as “diminished”. Further, the side-effects result with patients (therapeutic use) is reported as “severe side-effects appearing in the blood picture”. Moreover, the “positive inotropic action compared with compound 22” value in data set [4] (2 mg/kg i.v. amrinone versus 0.4 mg/kg i.v. compound 22, dogs) was “not more effective than that of 0.4 mg/kg of compound 22”. In addition, the “positive inotropic action after an acute myocardial ischaemia” value in data set [4] (anaesthetized open-chest dogs) was “significantly decreased”.

As to `CC(C)NCC(O)c1ccc(O)c(O)c1` (stereo not shown) [IS, isoproterenol, reference compound], the blood circulation parameters entry in data set [2] (0.2 μg/kg i.v., cats) was “did not influence”. In addition, in data set [2] (0.2 μg/kg i.v., internal standard, cats), the MCF response entry is “short-lasting and completely reversible”.

`Cc1nc(NCCCN2CCOCC2)c2c(n1)NC(=O)CO2` [Example 60, 2-Methyl-4-[3-(4-morpholinyl)-1-propyl]-amino-6,7-dihydro-8H-pyrimido[5,4-b][1,4]oxazin-7-one]: in data set [2], the change in vivo at 5 mg/kg came out at 51%.

On to “1-(4-hydroxyphenyl)-3-tertiary-butylamino-2-propanol [Prenalterol]”, for which the cardiac performance entry in the data set with patients (chronic oral treatment) is “not improved”. In addition, the “effect in acute cardiac insufficiency” value in the data set with patients (given intravenously, clinics) is listed as “very effective”.

In the case of `CC(C)(C)NCC(O)c1ccc(O)c(CO)n1` (stereo not shown) [Pirbuterol, 1-(5-hydroxy-6-hydroxymethyl-2-pyridyl)-2-tertiary-butylaminoethanol], the “observation after a longer period of oral treatment” value with patients (longer period) is “addiction was observed”. In addition, in the data set with patients (oral treatment for some weeks), the “effect during oral treatment” value is listed as “favorable effect”.
